Laboratory results: patent US20230189806A1, “FUNGICIDAL COMBINATIONS” (UPL Corporation Limited, priority 2021, published 2023)

Assays:
Rhizoctonia solani = assay: Seed treatment bio-efficacy against Rhizoctonia solani in inoculated soybean seeds; format: in vivo; conditions: % control of Rhizoctonia solani
Protocol: This effectiveness of all treatments as measured by percent reduction in the target phytopathogen growth, was also evaluated according to Colby's equation as below. E=X+Y−XY/100 Colby's equation If the actual/observed anti-phytopathogenic efficacy of the ipconazole and thiabendazole combination against Rhizoctonia solani growth exceeds the calculated value, then the activity of the combination is super additive, i.e., a synergistic effect exists. In this case, the efficacy which was actually observed must be greater than the value for the expected efficacy (E) calculated from the abovementioned formula. Methodology: Experiments were carried out to evaluate the bio-efficacy of combinations according to the invention of the present disclosure consisting of ipconazole and thiabendazole against Rhizoctonia solani fungi in soybean seeds. The seeds were inoculated with Rhizoctonia solani. The fungicides were tank mixed and applied as seed treatment as described in table 4 below. Spraying volume was 5 ml/kg.

S. sclerotiorum = assay: Paper towel roll method, incidence of S. sclerotiorum in inoculated soybean seeds; format: in vivo, Sclerotinia sclerotiorum; conditions: % control of S. sclerotiorum, 14 days at 25° C.
Protocol: Colby Calculation: This effectiveness of all treatments as measured by percent reduction in the target phytopathogen growth, was also evaluated according to Colby's equation as below. E=X+Y−XY/100 Colby's equation If the actual/observed anti-phytopathogenic efficacy of the ipconazole and thiabendazole combination against S. sclerotiorum exceeds the calculated value, then the activity of the combination is super additive, i.e., a synergistic effect exists. In this case, the efficacy which was actually observed must be greater than the value for the expected efficacy (E) calculated from the abovementioned formula. Methodology: To evaluate the incidence of the pathogen S. sclerotiorum in soybean seeds, the laboratory paper towel roll method was used. A paper towel on a flat surface was placed and moistened with water until it was thoroughly damp. A sample size of a total of 100 soybean seeds in rows were placed on the towel. The seeds were inoculated with the fungal pathogen. The seeds were pre-treated as per the treatments mentioned in the Table 5. A second towel was moistened and placed onto the first paper towel, leaving the seeds sandwiched between the two towels. It was observed that air space in between the two towels was maintained, if not, excessive water should be removed. The two towels were rolled with the seeds in-between and place in a sealed container that retained the moisture. The paper rolls were placed upright and incubated for 14 days in an incubator at 25° C. and at a 12 h photoperiod in plastic bags, which is used to maintain humidity during the incubation. For each treatment, 400 seeds were analyzed, 8 repetitions with 50 seeds each repetition.

Structure (SMILES)	Observed efficacy of demethylation inhibitor fungicide (%) (Rhizoctonia solani; ipconazole 2 g a.i./100 kg seed)	Observed efficacy of demethylation inhibitor fungicide (%) (Rhizoctonia solani; ipconazole 3 g a.i./100 kg seed)	Observed efficacy of demethylation inhibitor fungicide (%) (S. sclerotiorum; ipconazole 5.6 g a.i./100 kg seed)	Observed efficacy of demethylation inhibitor fungicide (%) (S. sclerotiorum; ipconazole 7.78 g a.i./100 kg seed)	Observed efficacy of β-tubulin assembly inhibitor fungicide (%) (Rhizoctonia solani; thiabendazole 12 g a.i./100 kg seeds)	Observed efficacy of β-tubulin assembly inhibitor fungicide (%) (Rhizoctonia solani; thiabendazole 18 g a.i./100 kg seeds)	Observed efficacy of β-tubulin assembly inhibitor fungicide (%) (S. sclerotiorum; thiabendazole 30.9 g a.i./100 kg seed)	Observed efficacy of β-tubulin assembly inhibitor fungicide (%) (S. sclerotiorum; thiabendazole 61.9 g a.i./100 kg seed)
CC(C)C1CCC(Cc2ccc(Cl)cc2)C1(O)Cn1cncn1 (centres unmarked) [Ipconazole]	49.05%	67.92%	21.3%	6.7%	–	–	–	–
c1ccc2[nH]c(-c3cscn3)nc2c1 [Thiabendazole]	–	–	–	–	43.39%	56.60%	14.6%	67.4%
